Test results reported in paper PMC8835475, “Salviolone from Salvia miltiorrhiza Roots Impairs Cell Cycle Progression, Colony Formation, and Metalloproteinase-2 Activity in A375 Melanoma Cells: Involvement of P21(Cip1/Waf1) Expression and STAT3 Phosphorylation” (International Journal of Molecular Sciences, 2022).

Experiments:
Format in all cases: cell-based, human
[1] = test system: pAkt; assay: Immunoblot of pAkt in A375 cells; conditions: A375, 20 µM, 72 h; declined in control
Description: (§1) A375 cells were seeded in 6 cm Petri dishes (190 300 cell/dish) and treated with different compounds at 10 or 20 μM. After 48- or 72-h treatment, the cells were scraped using warm 1× sample buffer (2% SDS, 10% glycerol, 50 mM Tris-HCl, 1.75% β-mercaptoethanol, and bromophenol blue) and boiled at 99 °C for 10 min. Total protein extracts were kept at −80 °C until use.
(§2) Protein extracts were analyzed with a 7.5 or 10% polyacrylamide SDS-PAGE and transferred to a polyvinylidene difluoride membrane (PVDF, Thermo Fisher Scientific, Waltham, MA, USA). The membranes were blocked at RT for 1 h with TBST buffer (10 mM Tris-HCl pH 7.5, 100 mM NaCl, 0.1% Tween20) containing 4% Milk (Formulat). Then, they were incubated on a shaker, overnight (ON) at 4 °C, with 5% BSA solution containing primary antibodies against p-Tyr705-STAT3 (#9145, 1:1000), pRb (#8516, 1:2000), pERK (#4370, 1:1000), pAkt (#4060, 1:2000), pSer15-P53 (#9286, 1:2000) (Cell Signaling Technology, Danvers, […], USA), Akt (GTX121937, 1:3000), ERK (GTX134452, 1:6000), Cyclin A2 (GTX-103042, 1:3000), p-Thr160Cdk2 (GTX-133862, 1:3000), p21 (GTX-629543, 1:3000) (Genetex, Alton Pkwj Irvine, CA, USA), p53 (Sc-263, 1:1000), STAT3 (Sc-482, 1:1000), and p-Ser727-STAT3 (Sc-136193, 1:1000) (Santa Cruz Biotechnology, Dallas, TX, USA). The membranes were washed three times with TBST buffer for 30 min and then incubated for 1 h with a horseradish-peroxidase-conjugated secondary antibody (anti-rabbit 1:6000, Genetex), (anti-mouse, 1:4000, Cell Signaling Technology, Danvers, […], USA). They were washed another three times for 30 min with TBST buffer. All protein extracts were normalized with a β-actin protein antibody (GTX-124214, 1:10,000; Genetex, Alton Pkwj Irvine, CA, USA). Immuno-detection was carried out with an ECL kit (GE-Healthcare, Little Chalfont, UK), and the chemiluminescence signals were detected with ChemiDoc (Bio-Rad, Hercules, CA, USA).

[2] = test system: pERK1/2; assay: Immunoblot of pERK1/2 in A375 cells; conditions: A375, 20 µM, 72 h; declined in control
Description: as §1, §2

[3] = test system: pSer15-P53 (pP53); assay: Immunoblot of pSer15-P53 in A375 cells; conditions: A375, 20 µM, vs untreated
Description: as §1
(§3) Protein extracts were analyzed with a 7.5 or 10% polyacrylamide SDS-PAGE and transferred to a polyvinylidene difluoride membrane (PVDF, Thermo Fisher Scientific, Waltham, MA, USA). The membranes were blocked at RT for 1 h with TBST buffer (10 mM Tris-HCl pH 7.5, 100 mM NaCl, 0.1% Tween20) containing 4% Milk (Formulat). […] Immuno-detection was carried out with an ECL kit (GE-Healthcare, Little Chalfont, UK), and the chemiluminescence signals were detected with ChemiDoc (Bio-Rad, Hercules, CA, USA).

[4] = test system: p-Ser727-STAT3; assay: Immunoblot of p-Ser727-STAT3 in A375 cells; conditions: A375, 20 µM, 72 h
Description: as §1, §3

[5] = test system: ERK1/2; assay: Immunoblot of total ERK1/2 in A375 cells; conditions: A375, 20 µM, 72 h
Description: as §1, §3

With C[C@H]1COC2=C1C(=O)C(=O)c1c2ccc2c1CCCC2(C)C [Compound 4, cryptotanshinone] the pAkt expression level [1] was “remained high”, the pERK1/2 expression level [2] was “remained high” and the “pSer15-P53 (pP53) expression / P53 phosphorylation level” value [3] was “no significant increase”. The p-Ser727-STAT3 level [4] was “increase”.

Cc1cc2ccc3c(c2cc(O)c1=O)CCCC3(C)C [Compound 7, salviolone] was tested, and the “total protein amount of ERK1/2” value [5] was “increased”, the pAkt expression level [1] was “remained high” and the pERK1/2 expression level [2] was “remained high”. For the same compound, the “pSer15-P53 (pP53) expression / P53 phosphorylation level” value [3] was “higher” and the p-Ser727-STAT3 level [4] was “increase”.
